Measurements from patent US20200163984A1, “USE OF ISOVALERYL SPIRAMYCIN I, II AND/OR III IN MANUFACTURING MEDICAMENT FOR TREATING AND/OR PREVENTING TUMOR, AND MEDICAMENT” (SHENYANG FUYANG PHARMACEUTICAL TECHNOLOGY CO., LTD., priority 2017, published 2020).

How the values were obtained:
[1] = Thymus index and spleen index of H22 liver cancer tumor-bearing mice
Description: In the H22 liver cancer model, the mice inoculated with the tumor were randomly divided into groups with 10 mice in each group on the next day of inoculation. The groups included: a model control group, a positive drug cyclophosphamide control group (CTX, 26 mg/kg), isovaleryl spiramycin I groups with doses of 13, 26 and 52 mg/kg; isovaleryl spiramycin II groups with doses of 13, 26 and 52 mg/kg; isovaleryl spiramycin III groups with doses of 13, 26 and 52 mg/kg. Each group was continuously administered intragastrically for 7 days with a dose of 20 ml/kg.

[2] = tested on: transplanted tumor of human thyroid cancer cell TPC-1; experiment: TPC-1 transplanted tumor in nude mice; conditions: dose 30 mg/kg
Description: (§1) Then cell concentration was adjusted to 1×10^7/ml with matrigel, then each nude mouse was inoculated subcutaneously with 0.2 ml of cells at its right armpit and recorded as the first day of inoculation. When the tumor grows to be greater than or equal to 100 mm^3, the mice were randomly divided into 11 groups with 6 mice in each group: isovaleryl spiramycin I groups with doses of 25, 50 and 100 mg/kg, isovaleryl spiramycin II groups with doses of 25, 50 and 100 mg/kg, and isovaleryl spiramycin III groups with doses of 25, 50 and 100 mg/kg. Each group was continuously administered intragastrically for 30 days with a dose of 20 ml/kg. The mice were sacrificed the next day after drug withdrawal and the indicators were tested. The long diameter and short diameter of the tumor, and the body weight of each mouse were recorded every 3 days from drug administration to nude mouse sacrifice.
(§2) The body weight of the nude mice and the long diameter (a) and short diameter (b) of the transplanted tumor were measured every 3 days, and the tumor volume (v), relative tumor volume (RTV) and relative tumor proliferation rate (T/C) are calculated respectively according to the following formulas, wherein V=a×b^2/2; RTV=V/V0 (V0 is the tumor volume before administration, V is the tumor volume before sacrifice), and T/C (%)=treatment group RTV/model control group RTV×100%.
(§3) Each mouse was weighed and sacrificed. After the tumor was completely stripped off from the body of the mouse, the non-tumor tissues such as blood stains and fat were removed to weigh the tumor and calculate the tumor growth inhibition rate. The average tumor weight of each group of mice is used as an indicator of efficacy. Tumor growth inhibition rate (%)=(1−the average tumor weight of the treatment group/the average tumor weight of the model group)×100%.

[3] = tested on: transplanted tumor of human renal cell adenocarcinoma cell 769-P; experiment: 769-P transplanted tumor in nude mice; conditions: 769-P nude mice, 30 mg/kg
Description: as §1, with “group: a model group, a cyclophosphamide group,” for “group:”, “the” for “the body”
as §2, §3

[4] = tested on: transplanted tumor of human large cell lung cancer H460 cells; experiment: H460 transplanted tumor in nude mice; conditions: H460; 30 mg/kg i.g. 30 days
Description: as §1, §2, §3

O=P1(N(CCCl)CCCl)NCCCO1 (stereo not drawn) [Cyclophosphamide, cyclophosphamide, reference compound]
thymus index and spleen index compared with the control group ([1]; H22 tumor-bearing mice, cyclophosphamide, P<0.01): significantly lower
Spleen Index (%) ([1]; dose 26 mg/kg): 0.38 ± 0.09 %
Thymus Index (%) ([1]; dose 26 mg/kg): 0.04 ± 0.02 %
Inhibition Rate (%) [2]: 71.29%
Relative Tumor Proliferation Rate (T/C) [2]: 37.40%
Relative Tumor Volume (RTV) [2]: 6.16 ± 2.29
Tumor Weight [2]: 0.69 ± 0.37 g
Body Weight (g) (d1) ([2]; d 1): 21.56 ± 1.54 g
Tumor Volume (mm3) (d 1) ([2]; d 1): 117.10 ± 4.88 mm3
Body Weight (g) (d30) ([2]; d 30): 19.16 ± 1.75 g
Tumor Volume (mm3) (d30) ([2]; d 30): 724.64 ± 285.14 mm3
Inhibition Rate (%) [3]: 70.52%
Relative Tumor Proliferation Rate (T/C) [3]: 35.34%
Relative Tumor Volume (RTV) [3]: 6.52 ± 0.90
Tumor Weight [3]: 0.6 ± 0.03 g
Body Weight (g) (d1) ([3]; d1): 21.61 ± 1.00 g
Tumor Volume (mm3) (d 1) ([3]; d1): 107.92 ± 15.94 mm3
Body Weight (g) (d30) ([3]; d30): 21.58 ± 0.81 g
Tumor Volume (mm3) (d30) ([3]; d30): 704.00 ± 45.50 mm3
Body Weight (d 1) [4]: 20.46 ± 0.54 g
Body Weight (d 30) [4]: 21.20 ± 0.75 g
Inhibition Rate (tumor growth inhibition rate) [4]: 71.08%
Relative Tumor Proliferation Rate (T/C) [4]: 30.86%
Relative Tumor Volume (RTV) [4]: 3.24 ± 0.99
Tumor Volume (d 1) [4]: 146.98 ± 27.55 mm3
Tumor Volume (d 30) [4]: 468.49 ± 128.57 mm3
Tumor Weight [4]: 0.50 ± 0.06 g
